Assay results reported in patent US6846659B2, “Isolation and bacterial expression of a sesquiterpene synthase cDNA clone from peppermint (Mentha x piperita, L.) that produces the aphid alarm pheromone (E)-β-farnesene” (Washington State University Research Foundation, priority 1997, dated 2005).

Experiments:
whiteflies = settings: vapor; cited from earlier work
aphids = settings: dose of 100 ng/aphid; cited from earlier work
[1] = target: T1, recombinant (E)-β-farnesene synthase (SEQ ID NO:2) (Mentha piperita, UniProt O48935); test: Kinetic characterization of recombinant, partially purified (E)-β-farnesene synthase (sesquiterpene/monoterpene/diterpene synthase assay); assay type: biochemical, peppermint (Mentha piperita)
T1 construct: made in house; host or cells: E. coli XL1-Blue harboring pBluescript clone p43
T1 sequence (O48935 1-550): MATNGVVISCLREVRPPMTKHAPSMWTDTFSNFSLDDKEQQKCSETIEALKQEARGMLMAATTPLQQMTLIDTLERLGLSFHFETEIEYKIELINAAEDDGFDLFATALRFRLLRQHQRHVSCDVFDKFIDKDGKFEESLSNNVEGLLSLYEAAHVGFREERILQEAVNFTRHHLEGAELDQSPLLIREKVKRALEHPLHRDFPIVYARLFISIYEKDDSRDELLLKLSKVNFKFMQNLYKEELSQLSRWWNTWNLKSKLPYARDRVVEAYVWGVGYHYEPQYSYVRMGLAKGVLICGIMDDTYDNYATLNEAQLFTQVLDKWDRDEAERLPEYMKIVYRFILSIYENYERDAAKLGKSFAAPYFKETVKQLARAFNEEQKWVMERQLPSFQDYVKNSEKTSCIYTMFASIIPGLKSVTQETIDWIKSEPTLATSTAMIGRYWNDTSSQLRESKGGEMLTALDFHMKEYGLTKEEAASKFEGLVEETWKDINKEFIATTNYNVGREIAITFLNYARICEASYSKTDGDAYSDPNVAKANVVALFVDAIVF
Method: (§1) Cell-Free Assays. […] The sonicate was centrifuged at 3700×g for 15 minutes, and an aliquot of the supernatant was then placed in a 10 ml screw-capped glass test tube containing divalent metal ions (10 mM MgCl2 and 1 mM MnCl2) and substrate (7.3 μM [1-^3H]FDP). The aqueous layer was overlaid with 1 ml pentane and the seated tube was incubated at 30° C. for two hours. The pentane overlay was then collected and the aqueous layer was extracted twice (1 ml) with pentane. The combined pentane extracts were passed through an anhydrous MgSO4-silica gel column to obtain the labeled hydrocarbon fraction for GC-MS analysis, or for radio-GC analysis using peppermint oil as an internal standard.
(§2) The chilled sonicate was cleared by centrifugation and the supernatant was assayed for sesquiterpene synthase activity as before, or for monoterpene synthase activity (with 4.5 μM [1-^3H]GDP) or diterpene synthase activity (with 10 μM [1-^3H]GGDP). In all cases, the pentane-soluble reaction products were purified by MgSO4-silica gel chromatography, as above, to prepare the olefin fraction for further analysis.
(§3) For determination of the pH optimum of (E)-β-farnesene synthase (SEQ ID NO:2), the preparation was adjusted with 50 mM Mopso (to a pH of 6.5, 6.75, 7.0, 7.25, 7.5, 8.0, or 8.5) before the assay. Kinetic constants for FDP, GDP, Mg^++ and Mn^++ were determined using a preparation of (E)-β-farnesene synthase (SEQ ID NO:2) that was partially purified by anion-exchange chromatography (on a Mono-Q column (Pharmacia) equilibrated with assay buffer and eluted with a linear KCl gradient (0 to 500 mM) in assay buffer). The 210-230 mM fraction containing the (E)-β-farnesene synthase (SEQ ID NO:2) was used for kinetic evaluation of FDP and GDP as substrates (concentration range 0.31 to 20 μM, with saturating Mg^++). […] Kinetic constants for Mg^++ and Mn^++ (assay range 1 μM to 2 mM of the chloride salts) were then determined at 7.3 μM [1-^3H]FDP. […]

[2] = substrate: CC(C)=CCC/C(C)=C/CC/C(C)=C/CO[P@@](=O)(O)OP(=O)(O)O; test: as above; assay type: biochemical, peppermint (Mentha piperita); settings: other: substrate range 0.31 to 20 μM, saturating Mg++; double reciprocal plot
Method: as §1, §2, §3

In the case of `C=CC(=C)CC/C=C(\C)CCC=C(C)C` [(E)-β-farnesene], the toxicity to whiteflies (whiteflies) is given as “toxic” and the “acute toxicity to aphids” value (aphids) is given as “acutely toxic”.

Molecule `CC(C)=CCC/C(C)=C/COP(=O)(O)OP(=O)(O)O` [GDP, geranyl diphosphate] has a Km ([1]; substrate range 0.31 to 20 μM, saturating Mg++, double reciprocal plot) of 1.5 µM.

With `CC(C)=CCC/C(C)=C/CC/C(C)=C/CC/C(C)=C/COP(=O)(O)OP(=O)(O)O` [[1-^3H]GGDP, geranylgeranyl diphosphate] the “activity of the synthase with the substrate analog” value ([1]; C20 substrate analog, 10 μM) was “inactive”.

B1: recombinant (E)-β-farnesene synthase (SEQ ID NO:2) (Mentha x piperita) (protein)
chain: T1 sequence (O48935 1-550)
notes: made in house; host or cells: E. coli XL1-Blue harboring pBluescript clone p43
In the case of B1, the Km [2] is reported as 0.6 µM.
